This is an account of results in patent publication US9873680B2 (Gilead Sciences, Inc., priority 2014, dated 2018).

The subject of one data set is HIV-IIIb. The data set can be described thus: Test A: Antiviral Assay in MT4 Cells. It counts as cell-based, HIV-1. The settings on record: for inhibition at 0.2 µM: 0.2 μM drug concentration. The protocol: Test A: Antiviral Assay in MT4 Cells
MT-4 cells were next mixed with HIV-IIIb at an m.o.i of 0.003 for 1 hour, after which time 35 μL of virus/cell mixture (2000 cells) was immediately added to each well containing 40 μL of diluted compound. The plates were then incubated at 37° C. for 5 days. After 5 days of incubation, 25 μl of 2× concentrated CellTiter-Glo™ Reagent (catalog #G7571, Promega Biosciences, Inc., Madison, Wis.) was added to each well containing MT-4 cells. Cell lysis was carried out by incubating at room temperature for 10 min and then chemiluminescence was read.

A short description of data set [1]: Test B: Cytotoxicity Assay. It counts as cell-based. The settings on record: human, uninfected MT-4 cells, CellTiter-Glo. As to the method: Test B: Cytotoxicity Assay Compound cytotoxicity and the corresponding CC50 values was determined using the same protocol as described in the antiviral assay (Test A) except that uninfected cells were used.
For orientation: In ATP-based viability assays light output follows the ATP content of the culture.

[2] abbreviates: Human immunodeficiency virus 1, MT4, 120 h, MT-4 cells infected with HIV-IIIb, 5 days, values normalized to 100%, average over time, read-out: % inhibition at 0.2 μM (percent inhibition of virus-induced cell killing).

Structures are written as SMILES. Like-named read-outs stand apart in the source and are kept apart here.

Broadly, the inhibition is the change of the read-out against control, counted positive when it falls. Usually CC50 stands for the concentration giving 50% cytotoxicity. A higher CC50 goes with better tolerance by the cells. Regarding `Cn1nc(NS(C)(=O)=O)c2cccc(-c3ccc(C#CC4(O)CCC4)nc3[C@H](Cc3cc(F)cc(F)c3)NC(=O)Cn3nc(C(F)(F)F)c4c3C(F)(F)[C@@H]3C[C@H]43)c21` [Compound 24D, 2-((3bS,4aR)-5,5-difluoro-3-(trifluoromethyl)-3b,4,4a,5-tetrahydro-1H-cyclopropa[3,4]cyclopenta[1,2-c]pyrazol-1-yl)-N—((S)-2-(3,5-difluorophenyl)-1-(6-((1-hydroxycyclobutyl)ethynyl)-3-(1-methyl-3-(methylsulfonamido)-1H-indazol-7-yl)pyridin-2-yl)ethyl)acetamide], the inhibition at 0.2 µM in the data set on HIV-IIIb (setting [2]) was 100%. Half-maximal cytotoxicity in data set [1] (CC50 at 5 days) was put at 15.8 µM.
On the same counts, the results for `Cn1nc(N)c2cccc(-c3ccc(C#CC4(O)CCC4)nc3[C@H](Cc3cc(F)cc(F)c3)NC(=O)Cn3nc(C(F)(F)F)c4c3C(F)(F)[C@@H]3C[C@H]43)c21` [Compound 25, N—((S)-1-(3-(3-amino-1-methyl-1H-indazol-7-yl)-6-((1-hydroxy-cyclobutyl)ethynyl)pyridin-2-yl)-2-(3,5-difluorophenyl)ethyl)-2-((3bS,4aR)-5,5-difluoro-3-(trifluoromethyl)-3b,4,4a,5-tetrahydro-1H-cyclopropa[3,4]cyclopenta[1,2-c]pyrazol-1-yl)acetamide] are 91% and 9.92 µM.
On the same counts, the results for `Cn1nc(NS(C)(=O)=O)c2cccc(-c3ccc(C#CC4(O)CCOCC4)nc3[C@H](Cc3cc(F)cc(F)c3)NC(=O)Cn3nc(C(F)(F)F)c4c3C(F)(F)[C@@H]3C[C@H]43)c21` [Compound 26, 2-((3bS,4aR)-5,5-difluoro-3-(trifluoromethyl)-3b,4,4a,5-tetrahydro-1H-cyclopropa[3,4]cyclopenta[1,2-c]pyrazol-1-yl)-N—((S)-2-(3,5-difluorophenyl)-1-(6-((4-hydroxytetrahydro-2H-pyran-4-yl)ethynyl)-3-(1-methyl-3-(methylsulfonamido)-1H-indazol-7-yl)pyridin-2-yl)ethyl)acetamide] are 94% and 15.9 µM.
For the molecule `Cn1nc(N)c2cccc(-c3ccc(C#CC4(O)CCOCC4)nc3[C@H](Cc3cc(F)cc(F)c3)NC(=O)Cn3nc(C(F)(F)F)c4c3C(F)(F)[C@@H]3C[C@H]43)c21` [Compound 27, N—((S)-1-(3-(3-amino-1-methyl-1H-indazol-7-yl)-6-((4-hydroxytetrahydro-2H-pyran-4-yl)ethynyl)pyridin-2-yl)-2-(3,5-difluorophenyl)ethyl)-2-((3bS,4aR)-5,5-difluoro-3-(trifluoromethyl)-3b,4,4a,5-tetrahydro-1H-cyclopropa[3,4]cyclopenta[1,2-c]pyrazol-1-yl)acetamide], in the data set with HIV-IIIb (setting [2]), the inhibition at 0.2 µM is 92%. Also, in data set [1], the CC50 at 5 days was determined as 15.8 µM.
Consider `Cn1nc(NS(C)(=O)=O)c2cccc(-c3ccc(C#CC4CCOCC4)nc3[C@H](Cc3cc(F)cc(F)c3)NC(=O)Cn3nc(C(F)(F)F)c4c3C(F)(F)[C@@H]3C[C@H]43)c21` [Compound 28B, 2-((3bS,4aR)-5,5-difluoro-3-(trifluoromethyl)-3b,4,4a,5-tetrahydro-1H-cyclopropa[3,4]cyclopenta[1,2-c]pyrazol-1-yl)-N—((S)-2-(3,5-difluorophenyl)-1-(3-(1-methyl-3-(methylsulfonamido)-1H-indazol-7-yl)-6-((tetrahydro-2H-pyran-4-yl)ethynyl)pyridin-2-yl)ethyl)acetamide], for which the inhibition at 0.2 µM in the data set on HIV-IIIb (setting [2]) came to 92%. In addition, the CC50 at 5 days in data set [1] turned out to be 6.07 µM.
As to `Cn1nc(NS(C)(=O)=O)c2cccc(-c3ccc(C#CC4(C)COC4)nc3[C@H](Cc3cc(F)cc(F)c3)NC(=O)Cn3nc(C(F)(F)F)c4c3C(F)(F)[C@@H]3C[C@H]43)c21` [Compound 29, 2-((3bS,4aR)-5,5-difluoro-3-(trifluoromethyl)-3b,4,4a,5-tetrahydro-1H-cyclopropa[3,4]cyclopenta[1,2-c]pyrazol-1-yl)-N—((S)-2-(3,5-difluorophenyl)-1-(3-(1-methyl-3-(methylsulfonamido)-1H-indazol-7-yl)-6-((3-methyloxetan-3-yl)ethynyl)pyridin-2-yl)ethyl)acetamide], the inhibition at 0.2 µM in the data set on HIV-IIIb (setting [2]) was determined as 100%. The same molecule displayed a CC50 at 5 days in data set [1] of 12.4 µM.
On the same counts, the results for `Cn1nc(NS(C)(=O)=O)c2cccc(-c3ccc(C#CC4(O)CCOC4)nc3[C@H](Cc3cc(F)cc(F)c3)NC(=O)Cn3nc(C(F)(F)F)c4c3C(F)(F)[C@@H]3C[C@H]43)c21` (stereo partly drawn) [Compound 30B, 2-((3bS,4aR)-5,5-difluoro-3-(trifluoromethyl)-3b,4,4a,5-tetrahydro-1H-cyclopropa[3,4]cyclopenta[1,2-c]pyrazol-1-yl)-N-((1S)-2-(3,5-difluorophenyl)-1-(6-((3-hydroxytetrahydrofuran-3-yl)ethynyl)-3-(1-methyl-3-(methylsulfonamido)-1H-indazol-7-yl)pyridin-2-yl)ethyl)acetamide] are 100% and 19.5 µM.
On the same counts, the results for `CN1CCC(O)(C#Cc2ccc(-c3cccc4c(NS(C)(=O)=O)nn(C)c34)c([C@H](Cc3cc(F)cc(F)c3)NC(=O)Cn3nc(C(F)(F)F)c4c3C(F)(F)[C@@H]3C[C@H]43)n2)CC1` [Compound 31, 2-((3bS,4aR)-5,5-difluoro-3-(trifluoromethyl)-3b,4,4a,5-tetrahydro-1H-cyclopropa[3,4]cyclopenta[1,2-c]pyrazol-1-yl)-N—((S)-2-(3,5-difluorophenyl)-1-(6-((4-hydroxy-1-methylpiperidin-4-yl)ethynyl)-3-(1-methyl-3-(methylsulfonamido)-1H-indazol-7-yl)pyridin-2-yl)ethyl)acetamide] are 93% and 20.2 µM.
Regarding `CN1CCN(CC#Cc2ccc(-c3cccc4c(NS(C)(=O)=O)nn(C)c34)c([C@H](Cc3cc(F)cc(F)c3)NC(=O)Cn3nc(C(F)(F)F)c4c3C(F)(F)[C@@H]3C[C@H]43)n2)CC1` [Compound 32, 2-((3bS,4aR)-5,5-difluoro-3-(trifluoromethyl)-3b,4,4a,5-tetrahydro-1H-cyclopropa[3,4]cyclopenta[1,2-c]pyrazol-1-yl)-N—((S)-2-(3,5-difluorophenyl)-1-(3-(1-methyl-3-(methylsulfonamido)-1H-indazol-7-yl)-6-(3-(4-methylpiperazin-1-yl)prop-1-yn-1-yl)pyridin-2-yl)ethyl)acetamide], in the data set with HIV-IIIb (setting [2]), the inhibition at 0.2 µM is 95%. This molecule also returned a CC50 at 5 days in data set [1] of 8.53 µM.
For the molecule `Cn1cncc1C#Cc1ccc(-c2cccc3c(NS(C)(=O)=O)nn(C)c23)c([C@H](Cc2cc(F)cc(F)c2)NC(=O)Cn2nc(C(F)(F)F)c3c2C(F)(F)[C@@H]2C[C@H]32)n1` [Compound 33, 2-((3bS,4aR)-5,5-difluoro-3-(trifluoromethyl)-3b,4,4a,5-tetrahydro-1H-cyclopropa[3,4]cyclopenta[1,2-c]pyrazol-1-yl)-N—((S)-2-(3,5-difluorophenyl)-1-(6-((1-methyl-1H-imidazol-5-yl)ethynyl)-3-(1-methyl-3-(methylsulfonamido)-1H-indazol-7-yl)pyridin-2-yl)ethyl)acetamide], in the data set with HIV-IIIb (setting [2]), the inhibition at 0.2 µM was found to be 93%. The molecule also registered a CC50 at 5 days in data set [1] of 12.5 µM.
Regarding `Cn1nc(NS(C)(=O)=O)c2cccc(-c3ccc(C#CCN4CCOCC4)nc3[C@H](Cc3cc(F)cc(F)c3)NC(=O)Cn3nc(C(F)(F)F)c4c3C(F)(F)[C@@H]3C[C@H]43)c21` [Compound 34, 2-((3bS,4aR)-5,5-difluoro-3-(trifluoromethyl)-3b,4,4a,5-tetrahydro-1H-cyclopropa[3,4]cyclopenta[1,2-c]pyrazol-1-yl)-N—((S)-2-(3,5-difluorophenyl)-1-(3-(1-methyl-3-(methylsulfonamido)-1H-indazol-7-yl)-6-(3-morpholinoprop-1-yn-1-yl)pyridin-2-yl)ethyl)acetamide], the inhibition at 0.2 µM with HIV-IIIb (setting [2]) worked out at 87%. This molecule showed a CC50 at 5 days in data set [1] of 10.2 µM.
Consider `NC(=O)c1cc(-c2ccc(C#CC3(O)CCOCC3)nc2[C@H](Cc2cc(F)cc(F)c2)NC(=O)Cn2nc(C(F)(F)F)c3c2C(F)(F)[C@@H]2C[C@H]32)ccc1F` [Compound 35, 5-(2-((S)-1-(2-((3bS,4aR)-5,5-difluoro-3-(trifluoromethyl)-3b,4,4a,5-tetrahydro-1H-cyclopropa[3,4]cyclopenta[1,2-c]pyrazol-1-yl)acetamido)-2-(3,5-difluorophenyl)ethyl)-6-((4-hydroxytetrahydro-2H-pyran-4-yl)ethynyl)pyridin-3-yl)-2-fluorobenzamide], for which the inhibition at 0.2 µM in the data set on HIV-IIIb (Human immunodeficiency virus 1, IIIB, MT4, comparison with previously published compounds, read-out: Response at 0.2 μM (percent inhibition of virus-induced cell killing)) amounted to 86%; with HIV-IIIb (setting [2]), 86%. The inhibition at 2 µM in the data set with HIV-IIIb (Human immunodeficiency virus 1, IIIB, MT4, 2 μM drug concentration, comparison with previously published compounds, read-out: Response at 2 μM (percent inhibition of virus-induced cell killing)) was found to be 86%. Also, the CC50 at 5 days in data set [1] was determined as 10.1 µM.
Consider `Cn1nc(NS(C)(=O)=O)c2cccc(-c3ccc(C#CC4CCCCN4)nc3[C@H](Cc3cc(F)cc(F)c3)NC(=O)Cn3nc(C(F)(F)F)c4c3C(F)(F)[C@@H]3C[C@H]43)c21` (stereo partly drawn) [Compound 36B, 2-((3bS,4aR)-5,5-difluoro-3-(trifluoromethyl)-3b,4,4a,5-tetrahydro-1H-cyclopropa[3,4]cyclopenta[1,2-c]pyrazol-1-yl)-N-((1S)-2-(3,5-difluorophenyl)-1-(3-(1-methyl-3-(methylsulfonamido)-1H-indazol-7-yl)-6-(piperidin-2-ylethynyl)pyridin-2-yl)ethyl)acetamide], for which, in the data set on HIV-IIIb (setting [2]), the inhibition at 0.2 µM was 83%. The 50% cytotoxic concentration (CC50) at 5 days in data set [1] is 6.57 µM.
